# Experimental data taken from PubChem BioAssay (NCI).
#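 These data come from cells grown in 96-well plates and exposed to compound for 48 hours at five concentrations. Here, GI50 denotes the concentration required for 50% inhibition of growth. TGI: concentration producing complete growth inhibition.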 Where a SMILES comes first, the peptide text is derived from it. [ ]: non-standard residue; d: D form. The star is where a group is joined. Decanoyl = CCCCCCCCCC(=O)*; Leu(ol) = CC(C)C[C@H](N)CO; Iva = CC[C@](C)(N)C(=O)O; Aib = CC(C)(N)C(=O)O
# Experiments:
# Experiment in all cases: inhibition of tumour cell growth, NCI panel, 48 h
# [1] = system: T-47D breast
# [2] = system: HCT-116 colon
# [3] = system: UO-31 renal
# [4] = system: HCC-2998 colon
# [5] = system: TK-10 renal
# [6] = system: UACC-257 melanoma
# [7] = system: HS 578T breast
# [8] = system: NCI-H522 lung
# [9] = system: OVCAR-4 ovarian
# [10] = system: CCRF-CEM leukemia
# [11] = system: SF-539 CNS
# [12] = system: HT29 colon
# [13] = system: SN12C renal
# [14] = system: SK-MEL-28 melanoma
# [15] = system: OVCAR-5 ovarian
# [16] = system: NCI-H460 lung
# [17] = system: SNB-19 CNS
# [18] = system: HL-60(TB) leukemia
# [19] = system: SF-268 CNS
# [20] = system: HOP-62 NSCLC
# [21] = system: SK-MEL-2 melanoma
# [22] = system: SF-295 CNS
# [23] = system: CAKI-1 renal
# [24] = system: SR leukemia
# [25] = system: M14 melanoma
# [26] = system: K-562 leukemia
# [27] = system: A549 NSCLC
# [28] = system: SNB-75 CNS
smiles,measurement,setting,value
CCCCCCCCCC(=O)N[C@@](C)(CC)C(=O)N1CCC[C@H]1C(=O)N[C@@H](CC(C)C)C(=O)N[C@@](C)(CC)C(=O)N[C@@H](CCC(N)=O)C(=O)N[C@H](CCC(N)=O)C(=O)NC(C)(C)C(=O)NC(C)(C)C(=O)N[C@@H](CCC(N)=O)C(=O)N[C@H](CC(C)C)C(=O)N[C@H](CO)CC(C)C (Decanoyl-[Iva]PL[Iva]Q[dQ][Aib][Aib]Q[dL][Leu(ol)]),GI50,[1],3.56 µM
same,TGI,[1],17.8 µM
same,GI50,[2],3.3 µM
same,TGI,[2],12.1 µM
same,GI50,[3],3.58 µM
same,TGI,[3],16.1 µM
same,GI50,[4],2150 nM
same,TGI,[4],4.58 µM
same,GI50,[5],4.09 µM
same,TGI,[5],16.7 µM
same,GI50,[6],1750 nM
same,TGI,[6],3.46 µM
same,GI50,[7],2100 nM
same,TGI,[7],5.5 µM
same,GI50,[8],2060 nM
same,TGI,[8],5.13 µM
same,GI50,[9],12.7 µM
same,TGI,[9],28.5 µM
same,GI50,[10],2010 nM
same,TGI,[10],4.49 µM
same,GI50,[11],1980 nM
same,TGI,[11],4.21 µM
same,GI50,[12],3.48 µM
same,TGI,[12],14.8 µM
same,GI50,[13],2290 nM
same,TGI,[13],6.15 µM
same,GI50,[14],1770 nM
same,TGI,[14],3.3 µM
same,GI50,[15],3.38 µM
same,TGI,[15],12.4 µM
same,GI50,[16],3.53 µM
same,TGI,[16],11.8 µM
same,GI50,[17],2080 nM
same,TGI,[17],4.66 µM
same,GI50,[18],2230 nM
same,TGI,[18],6.26 µM
same,GI50,[19],2500 nM
same,TGI,[19],6.52 µM
same,GI50,[20],2250 nM
same,TGI,[20],5.04 µM
same,GI50,[21],2760 nM
same,TGI,[21],8.36 µM
same,GI50,[22],1760 nM
same,TGI,[22],3.42 µM
same,GI50,[23],6.6 µM
same,TGI,[23],20.8 µM
same,GI50,[24],1940 nM
same,TGI,[24],4.32 µM
same,GI50,[25],1930 nM
same,TGI,[25],3.95 µM
same,GI50,[26],2090 nM
same,TGI,[26],4.37 µM
same,GI50,[27],4.93 µM
same,TGI,[27],27 µM
same,GI50,[28],1600 nM
same,TGI,[28],4.15 µM
